PubChem BioAssay (NCI)
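Step 1: Grow cells in 96-well plates. Step 2: Expose to compound for 48 hours at 5 concentrations. Step 3: Interpolate endpoints linearly; if unreached, use highest concentration. At the TGI there is no net growth.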

Columns and labels:
Assay in all cases: NCI-60 cell line screen, 48 h
T-47D breast = system: T-47D breast
HCT-116 colon = system: HCT-116 colon
HCC-2998 colon = system: HCC-2998 colon
K-562 leukemia = system: K-562 leukemia
NCI-H23 lung = system: NCI-H23 lung
OVCAR-5 ovarian = system: OVCAR-5 ovarian
MOLT-4 leukemia = system: MOLT-4 leukemia
DU-145 prostate = system: DU-145 prostate
OVCAR-4 ovarian = system: OVCAR-4 ovarian
MDA-MB-231 breast = system: MDA-MB-231 breast
MDA-MB-435 = system: MDA-MB-435
A498 renal = system: A498 renal
NCI-H226 lung = system: NCI-H226 lung
HL-60(TB) leukemia = system: HL-60(TB) leukemia
KM12 colon = system: KM12 colon
U251 CNS = system: U251 CNS
TK-10 renal = system: TK-10 renal
CAKI-1 renal = system: CAKI-1 renal
HT29 colon = system: HT29 colon
OVCAR-8 ovarian = system: OVCAR-8 ovarian
HOP-92 NSCLC = system: HOP-92 NSCLC
RXF 393 renal = system: RXF 393 renal
SF-295 CNS = system: SF-295 CNS
M14 melanoma = system: M14 melanoma
PC-3 prostate = system: PC-3 prostate
SK-MEL-28 melanoma = system: SK-MEL-28 melanoma
EKVX NSCLC = system: EKVX NSCLC
SW-620 colon = system: SW-620 colon
MDA-N = system: MDA-N
SK-MEL-2 melanoma = system: SK-MEL-2 melanoma
UACC-257 melanoma = system: UACC-257 melanoma
ACHN renal = system: ACHN renal
UO-31 renal = system: UO-31 renal
LOX IMVI melanoma = system: LOX IMVI melanoma
HS 578T breast = system: HS 578T breast
SK-MEL-5 melanoma = system: SK-MEL-5 melanoma
RPMI-8226 leukemia = system: RPMI-8226 leukemia
HCT-15 colon = system: HCT-15 colon
OVCAR-3 ovarian = system: OVCAR-3 ovarian
MCF7 breast = system: MCF7 breast
SR leukemia = system: SR leukemia
SF-268 CNS = system: SF-268 CNS
SK-OV-3 ovarian = system: SK-OV-3 ovarian
NCI/ADR-RES ovarian = system: NCI/ADR-RES ovarian
NCI-H460 lung = system: NCI-H460 lung
NCI-H522 lung = system: NCI-H522 lung
IGROV1 ovarian = system: IGROV1 ovarian
SF-539 CNS = system: SF-539 CNS
786-0 renal = system: 786-0 renal
HOP-62 NSCLC = system: HOP-62 NSCLC
COLO 205 colon = system: COLO 205 colon
SN12C renal = system: SN12C renal
CCRF-CEM leukemia = system: CCRF-CEM leukemia
SNB-75 CNS = system: SNB-75 CNS
UACC-62 melanoma = system: UACC-62 melanoma
A549 NSCLC = system: A549 NSCLC
SNB-19 CNS = system: SNB-19 CNS

CCCCC1Cc2ccccc2-c2nc3ccccc3n21 (stereo not given)
TGI (T-47D breast): 29.4 µM | TGI (HCT-116 colon): 26.6 µM | TGI (HCC-2998 colon): 27.8 µM | TGI (K-562 leukemia): 31.7 µM | TGI (NCI-H23 lung): 32 µM | TGI (OVCAR-5 ovarian): 31.4 µM | TGI (MOLT-4 leukemia): 32.9 µM | TGI (DU-145 prostate): 38.1 µM | TGI (OVCAR-4 ovarian): 29.8 µM | TGI (MDA-MB-231 breast): 31.7 µM | TGI (MDA-MB-435): 37.1 µM | TGI (A498 renal): 30.6 µM | TGI (NCI-H226 lung): 39.5 µM | TGI (HL-60(TB) leukemia): 231 nM | TGI (KM12 colon): 38.5 µM | TGI (U251 CNS): 30.9 µM | TGI (TK-10 renal): 31.5 µM | TGI (CAKI-1 renal): 31.9 µM | TGI (HT29 colon): 29.6 µM | TGI (OVCAR-8 ovarian): 34.9 µM | TGI (HOP-92 NSCLC): 30.8 µM | TGI (RXF 393 renal): 34.5 µM | TGI (SF-295 CNS): 30.8 µM | TGI (M14 melanoma): 36.3 µM | TGI (PC-3 prostate): 22.1 µM | TGI (SK-MEL-28 melanoma): 31 µM | TGI (EKVX NSCLC): 50 µM | TGI (SW-620 colon): 33.9 µM | TGI (MDA-N): 29.2 µM | TGI (SK-MEL-2 melanoma): 30.7 µM | TGI (UACC-257 melanoma): 32.2 µM | TGI (ACHN renal): 31 µM | TGI (UO-31 renal): 36.1 µM | TGI (LOX IMVI melanoma): 31.6 µM | TGI (HS 578T breast): 35.4 µM | TGI (SK-MEL-5 melanoma): 31.1 µM | TGI (RPMI-8226 leukemia): 32.5 µM | TGI (HCT-15 colon): 28.4 µM | TGI (OVCAR-3 ovarian): 30.3 µM | TGI (MCF7 breast): 32.9 µM | TGI (SR leukemia): 24.3 µM | TGI (SF-268 CNS): 33 µM | TGI (SK-OV-3 ovarian): 37.5 µM | TGI (NCI/ADR-RES ovarian): 33.5 µM | TGI (NCI-H460 lung): 28.8 µM | TGI (NCI-H522 lung): 26.5 µM | TGI (IGROV1 ovarian): 32.9 µM | TGI (SF-539 CNS): 41.4 µM | TGI (786-0 renal): 61.9 µM | TGI (HOP-62 NSCLC): 36.5 µM

O=C(/C=C/c1ccc2ccccc2c1)NCc1ccc(C(=O)NCCc2ccccc2)cc1
TGI (T-47D breast): > 100 µM | TGI (HCT-116 colon): > 100 µM | TGI (HCC-2998 colon): > 100 µM | TGI (K-562 leukemia): > 100 µM | TGI (COLO 205 colon): > 100 µM | TGI (NCI-H23 lung): > 100 µM | TGI (OVCAR-5 ovarian): > 100 µM | TGI (MOLT-4 leukemia): > 100 µM | TGI (DU-145 prostate): > 100 µM | TGI (OVCAR-4 ovarian): > 100 µM | TGI (SN12C renal): > 100 µM | TGI (MDA-MB-231 breast): > 100 µM | TGI (MDA-MB-435): > 100 µM | TGI (A498 renal): > 100 µM | TGI (NCI-H226 lung): > 100 µM | TGI (HL-60(TB) leukemia): > 100000 nM | TGI (KM12 colon): > 100 µM | TGI (U251 CNS): > 100 µM | TGI (CAKI-1 renal): > 100 µM | TGI (OVCAR-8 ovarian): > 100 µM | TGI (HOP-92 NSCLC): > 100 µM | TGI (RXF 393 renal): > 100 µM | TGI (SF-295 CNS): > 100 µM | TGI (M14 melanoma): > 100 µM | TGI (CCRF-CEM leukemia): > 100 µM | TGI (PC-3 prostate): > 100 µM | TGI (SK-MEL-28 melanoma): > 100 µM | TGI (SW-620 colon): > 100 µM | TGI (MDA-N): > 100 µM | TGI (SK-MEL-2 melanoma): > 100 µM | TGI (UACC-257 melanoma): > 100 µM | TGI (ACHN renal): > 100 µM | TGI (UO-31 renal): > 100 µM | TGI (LOX IMVI melanoma): > 100 µM | TGI (SNB-75 CNS): > 100 µM | TGI (SK-MEL-5 melanoma): > 100 µM | TGI (RPMI-8226 leukemia): > 100 µM | TGI (HCT-15 colon): > 100 µM | TGI (OVCAR-3 ovarian): > 100 µM | TGI (UACC-62 melanoma): > 100 µM | TGI (MCF7 breast): > 100 µM | TGI (A549 NSCLC): > 100 µM | TGI (SR leukemia): > 100 µM | TGI (SF-268 CNS): > 100 µM | TGI (SK-OV-3 ovarian): > 100 µM | TGI (NCI/ADR-RES ovarian): > 100 µM | TGI (SNB-19 CNS): > 100 µM | TGI (NCI-H460 lung): > 100 µM | TGI (786-0 renal): > 100 µM | TGI (HOP-62 NSCLC): > 100 µM
